{"source": "patent US20240208950A1", "about": "“COMPOSITIONS AND METHODS FOR TREATMENT OF CERVICAL AND OVARIAN CANCER” (SOUTH DAKOTA BOARD OF REGENTS, priority 2021, published 2024)", "key": {"[1]": {"system": "EMT markers and MMPs in CaSki cells", "assay": "Western blot for EMT markers and MMPs, CaSki", "assay_type": "cell-based, human", "conditions": "24 hours", "protocol": "In a further example, cell lysates and western blot analysis was conducted for EMT markers and MMPs. […] In this example, about 70% of confluent SiHa and CaSki were treated with ORM-Br ([…]) for 24 hours. Cell lysates were prepared, and western blot analysis were conducted for EMT markers and MMPs analysis. The effect of ORM-Br on protein levels of cell-cycle regulatory proteins (cyclin E1 and p27) in both CaSki and SiHa cell lines are shown.\nThe effect of Br-ORM on protein expression in cervical cancer cells were determined by Western blot analysis by using specific antibodies.\nEpithelial mesenchymal transition (EMT) is the basic characteristic of cancer cells in which epithelial cells undergo morphologic and molecular changes that transform the cells to mesenchymal, highly metastatic (invasive and motile), and drug-resistant phenotypes. Thus, targeting EMT may reduce the invasive phenotypes of a cancer cell and have significant advantage to overcome drug resistance. It has been reported that β-catenin is involved in invasion and metastasis via inducing EMT in various tumor cells. The effect of Br-ORM treatment on various EMT markers in cervical cancer cells was evaluated. […] The effect of Br-ORM on expression of EMT markers in cervical cancer cells compared to untreated group by use of qPCR analysis was determined. […] Expression of E-cadherin in cervical cancer cells treated with Br-ORM (10 μM) for 18 hours was also determined by immunofluorescence and confocal microscopy. Images were captured under 60× magnification and representative images are presented (FIG. 14G).\nFIG. 14. Br-ORM decreases migration, invasion and attenuates EMT in cervical cancer cells. Effect of Br-ORM on cell migration of cervical cancer cells as determined by agarose bead (FIG. 14A), scratch wound healing (FIG. 14B), and Boyden chamber assay (FIG. 14C). AB denotes agarose bead while MC denotes migratory cells. Arrows indicate the distance of cervical cancer (CaSki and SiHa) cells migration in control and Br-ORM treated groups (FIG. 14A(i)-(ii)). […] Closure of wound was determined and photographed using phase contrast microscopy. […] Bar graph represent the quantification of migrated CaSki cells of control and Br-ORM treated groups (FIG. 14C(ii)). […] Effect of Br-ORM treatment on invasion of CaSki cells as determined by a commercially available kit (BD Biosciences) as described in materials and methods. In brief, 24 hours post-treatment of Br-ORM, invaded cells were fixed, stained and counted. […] Bar graph represent the quantification of invaded CaSki cells of control and Br-ORM treated groups (FIG. 14D(ii)). […] Effect of Br-ORM on E-cadherin expression in cervical cancer cells as determined by confocal microscopy in control and Br-ORM treated cells after 18 hours."}, "[2]": {"system": "HPV16 E6 and E7 transcripts in CaSki cells", "assay": "qPCR of HPV E6 and HPV E7 transcripts, CaSki", "assay_type": "cell-based, human", "conditions": "18 hours", "protocol": "RNA from cervical cancer cells was isolated using Qiagen kit and quantified using NanoDrop instrument 2000 (Thermo Scientific, Waltham, MA, USA). To analyze the expression of miR-200a in control and Br-ORM treated cells, 100 ng total RNA was reverse transcribed into cDNA using specific primers designed for miRNA analysis (Applied Biosystems, Foster City, CA, USA). The expression of this miRNAs was determined by qRT-PCR using the Taqman PCR master mixture and specific primers designed for detection of mature miRNAs (Applied Biosystems). The expression of miRNA was normalized with the expression of endogenous control, RNU6B.\nHPV infections are associated with a majority of cervical cancer cases. The effect of Br-ORM on the expression of HPV E6 and HPV E7 oncogenes in CaSki and SiHa cells was investigated. […] Br-ORM repressed both transcription and translation of E6 and E7 oncogene in cervical cancer cells.\nFIG. 16. Effect of Br-ORM on HPV oncoproteins and tumor suppressor miR-200 in cervical cancer cells. […] Increase expression of tumor suppressor miR200a in cervical cancer cells treated with BR-ORM for 24 hours in comparison to non-treated controls was determined through real time PCR (FIG. 16A(v)-(vii)). […]"}}}
{"smiles": "COc1ccc2c(c1)OC(C)(C)C(c1ccc(Br)cc1)C2c1ccc(OCCN2CCCC2)cc1", "note": "(centres unmarked) [ORM-Br]", "values": [{"measurement": "EMT associated markers (N-cadherin, vimentin and snail) expression", "setting": "[1]", "result": "inhibits the EMT associated markers"}, {"measurement": "expression of E-cadherin", "setting": "[1]", "result": "induced the expression of E-cadherin"}, {"measurement": "expression of MMP2 and MMP9", "setting": "[1]", "result": "inhibited the expression of MMP2 and MMP9"}, {"measurement": "EMT associated markers (N-cadherin, vimentin and snail) expression", "setting": "[1]; listed as Br-ORM", "result": "marked inhibition"}, {"measurement": "HPV16 E6 and E7 transcripts", "setting": "[2]", "result": "significant downregulation"}]}
